Measurements published in paper PMC8342319, “Predicting blood-to-plasma concentration ratios of drugs from chemical structures and volumes of distribution in humans” (Molecular Diversity, 2021).
Read-outs that look alike come from different tables or passages of the source.

Legend:
[1] = human
[2] = human, intravenous, cited from earlier work
[3] = human, cited from earlier work
[4] = median if multiple values were reported, ref numbers in Table S1
[5] = intravenous, median if multiple values were reported, ref numbers in Table S1
[6] = median if multiple values reported, Reference of Table S1
[7] = intravenous, median if multiple values reported, Reference of Table S1

C[C@H]1O[C@@H](O[C@H]2[C@@H](O)C[C@H](O[C@H]3[C@@H](O)C[C@H](O[C@H]4CC[C@@]5(C)[C@H](CC[C@@H]6[C@@H]5C[C@@H](O)[C@]5(C)[C@@H](C7=CC(=O)OC7)CC[C@]65O)C4)O[C@@H]3C)O[C@@H]2C)C[C@H](O)[C@@H]1O [Digoxin]
in vivo MRT_(hr)_Human [1]: 40.196 h | in vivo CL_(L/hr/kg)_Human [2, 4]: 0.102 L/h/kg | in vivo Vd_(L/kg)_Human [3, 5]: 4.100 L/kg

CN[C@@H]1CCc2[nH]c3ccc(C(N)=O)cc3c2C1 [Frovatriptan]
in vivo MRT_(hr)_Human [1]: 24.000 h | in vivo CL_(L/hr/kg)_Human [2, 4]: 0.150 L/h/kg | in vivo Vd_(L/kg)_Human [3, 5]: 3.600 L/kg

COCc1c(C(C)C)nc(C(C)C)c(/C=C/[C@@H](O)C[C@@H](O)CC(=O)O)c1-c1ccc(F)cc1 [Cerivastatin]
in vivo MRT_(hr)_Human [1]: 1.897 h | in vivo CL_(L/hr/kg)_Human [2, 4]: 0.174 L/h/kg | in vivo Vd_(L/kg)_Human [3, 5]: 0.330 L/kg

O=c1ccc2ccccc2o1 [Coumarin]
in vivo MRT_(hr)_Human [1]: 2.157 h | in vivo CL_(L/hr/kg)_Human [2, 4]: 1.020 L/h/kg | in vivo Vd_(L/kg)_Human [3, 5]: 2.200 L/kg

Cc1[nH]cnc1CN1CCc2c(c3ccccc3n2C)C1=O [Alosetron]
in vivo MRT_(hr)_Human [1]: 2.107 h | in vivo CL_(L/hr/kg)_Human [2, 4]: 0.522 L/h/kg | in vivo Vd_(L/kg)_Human [3, 5]: 1.100 L/kg

CNCCC=C1c2ccccc2CCc2ccccc21 [Nortriptyline]
in vivo MRT_(hr)_Human [1]: 36.667 h | in vivo CL_(L/hr/kg)_Human [2, 4]: 0.516 L/h/kg | in vivo Vd_(L/kg)_Human [3, 5]: 22.000 L/kg

CC1(C)O[C@@H]2C[C@H]3[C@@H]4C[C@H](F)C5=CC(=O)C=C[C@]5(C)[C@H]4[C@@H](O)C[C@]3(C)[C@]2(C(=O)CO)O1 [Flunisolide]
in vivo MRT_(hr)_Human [1]: 2.500 h | in vivo CL_(L/hr/kg)_Human [2, 4]: 0.720 L/h/kg

CN/C(=N/CCSCc1nc[nH]c1C)NC#N [Cimetidine]
in vivo MRT_(hr)_Human [1]: 2.469 h | in vivo CL_(L/hr/kg)_Human [2, 4]: 0.492 L/h/kg | in vivo Vd_(L/kg)_Human [3, 5]: 1.200 L/kg

C[C@H]1COc2c(N3CCN(C)CC3)c(F)cc3c(=O)c(C(=O)O)cn1c23 [Levofloxacin]
in vivo MRT_(hr)_Human [1]: 37.281 h | in vivo CL_(L/hr/kg)_Human [2, 4]: 0.114 L/h/kg | in vivo Vd_(L/kg)_Human [3, 5]: 4.250 L/kg

CN(C)Cc1nnc2n1-c1ccc(Cl)cc1C(c1ccccc1)=NC2 [Adinazolam]
in vivo MRT_(hr)_Human [1]: 2.634 h | in vivo CL_(L/hr/kg)_Human [2, 4]: 0.372 L/h/kg | in vivo Vd_(L/kg)_Human ([3]; in vivo, iv): 0.980 L/kg

O=C(O)CCCCO/N=C(/c1cccnc1)c1cccc(C(F)(F)F)c1 [Ridogrel]
in vivo MRT_(hr)_Human [1]: 6.825 h | in vivo CL_(L/hr/kg)_Human [2, 6]: 0.063 L/h/kg | in vivo Vd_(L/kg)_Human [3, 7]: 0.430 L/kg

CC1COc2c(N3CCN(C)CC3)c(F)cc3c(=O)c(C(=O)O)cn1c23 (stereo not drawn) [Ofloxacin]
in vivo MRT_(hr)_Human [1]: 10.667 h | in vivo CL_(L/hr/kg)_Human [2, 4]: 0.150 L/h/kg | in vivo Vd_(L/kg)_Human [3, 5]: 1.600 L/kg

Nc1nc(O)c2ncn(COC(CO)CO)c2n1 [Ganciclovir]
in vivo MRT_(hr)_Human [1]: 3.623 h | in vivo CL_(L/hr/kg)_Human [2, 4]: 0.240 L/h/kg | in vivo Vd_(L/kg)_Human [3, 5]: 1.000 L/kg

CC(C)(C)NC(=O)[C@@H]1CN(Cc2cccnc2)CCN1C[C@@H](O)C[C@@H](Cc1ccccc1)C(=O)N[C@H]1c2ccccc2C[C@H]1O [Indinavir]
in vivo MRT_(hr)_Human [1]: 0.759 h | in vivo CL_(L/hr/kg)_Human [2, 4]: 1.080 L/h/kg | in vivo Vd_(L/kg)_Human [3, 5]: 0.820 L/kg

CC(C)Oc1ccccc1N1CCN(Cc2cccc(C(=O)N3CCCCC3)c2)CC1 [Mazapertine]
in vivo MRT_(hr)_Human [1]: 4.160 h | in vivo CL_(L/hr/kg)_Human [2, 4]: 0.370 L/h/kg | in vivo Vd_(L/kg)_Human [3, 5]: 1.540 L/kg

CN(C)CCCN1c2ccccc2CCc2ccc(Cl)cc21 [Clomipramine]
in vivo MRT_(hr)_Human [1]: 26.423 h | in vivo CL_(L/hr/kg)_Human [2, 4]: 0.492 L/h/kg | in vivo Vd_(L/kg)_Human [3, 5]: 13.000 L/kg

Cn1c(=O)c2c(ncn2C)n(C)c1=O [Caffeine]
in vivo MRT_(hr)_Human [1]: 8.095 h | in vivo CL_(L/hr/kg)_Human [2, 4]: 0.084 L/h/kg | in vivo Vd_(L/kg)_Human [3, 5]: 0.680 L/kg

CC[C@@H](CO)NCCN[C@@H](CC)CO [Ethambutol]
in vivo MRT_(hr)_Human [1]: 2.833 h | in vivo CL_(L/hr/kg)_Human [2, 4]: 0.600 L/h/kg | in vivo Vd_(L/kg)_Human [3, 5]: 1.700 L/kg

CN1CCN(c2c(F)cc3c(=O)c(C(=O)O)cn(CCF)c3c2F)CC1 [Fleroxacin]
in vivo MRT_(hr)_Human [1]: 10.764 h | in vivo CL_(L/hr/kg)_Human [2, 4]: 0.144 L/h/kg | in vivo Vd_(L/kg)_Human [3, 5]: 1.550 L/kg

OC(Cn1cncn1)(Cn1cncn1)c1ccc(F)cc1F [Fluconazole]
in vivo MRT_(hr)_Human [1]: 40.323 h | in vivo CL_(L/hr/kg)_Human [2, 4]: 0.019 L/h/kg | in vivo Vd_(L/kg)_Human [3, 5]: 0.750 L/kg

Cc1ccccc1N1C(=O)c2cc(S(N)(=O)=O)c(Cl)cc2NC1C (stereo not drawn) [Metolazone]
in vivo MRT_(hr)_Human [1]: 19.048 h | in vivo CL_(L/hr/kg)_Human [2, 4]: 0.084 L/h/kg | in vivo Vd_(L/kg)_Human [3, 5]: 1.600 L/kg

CCCc1nn(C)c2c(=O)[nH]c(-c3cc(S(=O)(=O)N4CCN(C)CC4)ccc3OCC)nc12 [Sildenafil]
in vivo MRT_(hr)_Human [1]: 2.564 h | in vivo Vd_(L/kg)_Human [3, 7]: 1.400 L/kg

CCCCNC(=O)NS(=O)(=O)c1ccc(C)cc1 [Tolbutamide]
in vivo MRT_(hr)_Human [1]: 9.524 h | in vivo Vd_(L/kg)_Human [3, 7]: 0.120 L/kg

O=c1[nH]cnc2c1ncn2[C@H]1CC[C@@H](CO)O1 [Didanosine]
in vivo MRT_(hr)_Human [1]: 1.197 h | in vivo CL_(L/hr/kg)_Human [2, 4]: 0.660 L/h/kg

Cc1ncc([N+](=O)[O-])n1CCO [Metronidazole]
in vivo MRT_(hr)_Human [1]: 7.843 h | in vivo CL_(L/hr/kg)_Human [2, 4]: 0.051 L/h/kg | in vivo Vd_(L/kg)_Human [3, 5]: 0.400 L/kg

CCCCc1nc(Cl)c(CO)n1Cc1ccc(-c2ccccc2-c2nn[nH]n2)cc1 [Losartan]
in vivo MRT_(hr)_Human [1]: 0.752 h | in vivo CL_(L/hr/kg)_Human [2, 4]: 0.489 L/h/kg | in vivo Vd_(L/kg)_Human [3, 5]: 0.370 L/kg

CN(C)CCC=C1c2ccccc2COc2ccccc21 [Doxepin]
in vivo MRT_(hr)_Human [1]: 14.286 h | in vivo CL_(L/hr/kg)_Human [2, 4]: 0.840 L/h/kg | in vivo Vd_(L/kg)_Human [3, 5]: 12.000 L/kg

NS(=O)(=O)c1cc(C2(O)NC(=O)c3ccccc32)ccc1Cl (stereo not drawn) [Chlorthalidone]
in vivo MRT_(hr)_Human [1]: 43.333 h | in vivo CL_(L/hr/kg)_Human [2, 4]: 0.046 L/h/kg | in vivo Vd_(L/kg)_Human [3, 5]: 3.900 L/kg

Cc1nccn1CC1CCc2c(c3ccccc3n2C)C1=O (stereo not drawn) [Ondansetron]
in vivo MRT_(hr)_Human [1]: 5.172 h | in vivo CL_(L/hr/kg)_Human [2, 4]: 0.354 L/h/kg | in vivo Vd_(L/kg)_Human [3, 5]: 1.800 L/kg

CC(C)(O)c1ccccc1CC[C@@H](SCC1(CC(=O)O)CC1)c1cccc(/C=C/c2ccc3ccc(Cl)cc3n2)c1 [Montelukast]
in vivo MRT_(hr)_Human [1]: 3.676 h | in vivo CL_(L/hr/kg)_Human [2, 4]: 0.041 L/h/kg | in vivo Vd_(L/kg)_Human [3, 5]: 0.150 L/kg

CN(C)CCCN1c2ccccc2Sc2ccc(Cl)cc21 [Chlorpromazine]
in vivo MRT_(hr)_Human [1]: 10.938 h | in vivo CL_(L/hr/kg)_Human [2, 4]: 0.960 L/h/kg | in vivo Vd_(L/kg)_Human [3, 5]: 10.500 L/kg

CN1C2CCCC1CC(NC(=O)c1nn(C)c3ccccc13)C2 (stereo not drawn) [Granisetron]
in vivo MRT_(hr)_Human [1]: 6.777 h | in vivo CL_(L/hr/kg)_Human [2, 4]: 0.546 L/h/kg | in vivo Vd_(L/kg)_Human [3, 5]: 3.700 L/kg

CCN1CCC[C@H]1CNC(=O)c1c(OC)ccc(Br)c1OC [Remoxipride]
in vivo MRT_(hr)_Human [1]: 6.373 h | in vivo CL_(L/hr/kg)_Human [2, 6]: 0.102 L/h/kg | in vivo Vd_(L/kg)_Human [3, 7]: 0.650 L/kg

CCN(CC)CCNC(=O)c1ccc(NS(C)(=O)=O)cc1 [Sematilide]
in vivo MRT_(hr)_Human [1]: 3.694 h | in vivo CL_(L/hr/kg)_Human [2, 6]: 0.222 L/h/kg | in vivo Vd_(L/kg)_Human [3, 7]: 0.820 L/kg

CC(C)(C)NC(=O)[C@H]1CC[C@H]2[C@@H]3CC[C@H]4NC(=O)C=C[C@]4(C)[C@H]3CC[C@]12C [Finasteride]
in vivo MRT_(hr)_Human [1]: 7.639 h | in vivo Vd_(L/kg)_Human [3, 5]: 1.100 L/kg

Cc1cc(=O)n(-c2ccccc2)n1C [Antipyrine]
in vivo MRT_(hr)_Human [1]: 21.354 h | in vivo CL_(L/hr/kg)_Human [2, 4]: 0.038 L/h/kg | in vivo Vd_(L/kg)_Human [3, 5]: 0.820 L/kg

CNCCCN1c2ccccc2CCc2ccccc21 [Desipramine]
in vivo MRT_(hr)_Human [1]: 22.727 h | in vivo Vd_(L/kg)_Human [3, 5]: 15.000 L/kg

O=C1CN=C(c2ccccc2)c2cc([N+](=O)[O-])ccc2N1 [Nitrazepam]
in vivo MRT_(hr)_Human [1]: 32.946 h | in vivo CL_(L/hr/kg)_Human [2, 4]: 0.052 L/h/kg | in vivo Vd_(L/kg)_Human ([3]; in vivo, iv): 1.700 L/kg

COC(=O)C1=C(C)NC(C)=C(C(=O)OCC(C)C)C1c1ccccc1[N+](=O)[O-] (stereo not drawn) [Nisoldipine]
in vivo MRT_(hr)_Human [1]: 6.111 h | in vivo CL_(L/hr/kg)_Human [2, 4]: 0.900 L/h/kg | in vivo Vd_(L/kg)_Human [3, 5]: 5.500 L/kg

CCN(CC)CCNC(=O)c1cc(Cl)c(N)cc1OC [Metoclopramide]
in vivo MRT_(hr)_Human [1]: 9.357 h | in vivo CL_(L/hr/kg)_Human [2, 4]: 0.342 L/h/kg | in vivo Vd_(L/kg)_Human [3, 5]: 3.200 L/kg
